Laboratory results reported in patent publication US7732603B2, “Organic compounds as agents for the treatment of aldosterone mediated conditions” (Novartis AG, priority 2002, dated 2010).

What was measured:
aldosterone synthase = biological target: T1, aldosterone synthase (Rattus norvegicus, UniProt P30099); assay: aldosterone synthase inhibitory activity in vitro (rat adrenal glomerulosa homogenate, conversion of [3H]corticosterone); format: biochemical; conditions: read-out: inhibit the aldosterone synthase activity with an IC50 value
T1 construct: The adrenals are decapsulated to obtain the glomerulosa tissue; The tissue is homogenized in a glass homogenizer; from tissue; host or cells: rat adrenal glomerulosa tissue homogenate (900 x g supernatant), sodium-depleted Sprague-Dawley rats
T1 sequence (P30099 35-510): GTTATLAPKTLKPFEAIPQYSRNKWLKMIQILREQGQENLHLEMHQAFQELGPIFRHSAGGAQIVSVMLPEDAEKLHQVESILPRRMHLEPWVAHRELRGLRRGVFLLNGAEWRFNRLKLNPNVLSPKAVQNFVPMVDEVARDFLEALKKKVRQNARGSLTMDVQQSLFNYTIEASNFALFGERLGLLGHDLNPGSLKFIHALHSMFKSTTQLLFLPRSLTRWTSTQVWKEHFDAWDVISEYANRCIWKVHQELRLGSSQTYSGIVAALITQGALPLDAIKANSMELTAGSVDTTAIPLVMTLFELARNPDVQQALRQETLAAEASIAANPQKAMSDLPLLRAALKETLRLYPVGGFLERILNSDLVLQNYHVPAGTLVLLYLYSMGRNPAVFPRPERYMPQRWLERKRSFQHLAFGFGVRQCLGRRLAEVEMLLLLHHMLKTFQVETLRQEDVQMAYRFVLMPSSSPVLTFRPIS
Excerpt: The aldosterone synthase inhibitory activity in vitro may be determined as follows:
Adult male Sprague-Dawley rats weighing 125-150 g are obtained from Harlan Farms. All animals are caged in pairs and maintained under standard conditions of light and temperature. The animals are placed on a sodium depleted diet (0.01-0.02%) from Harland Teklad, Madison Wis. (cat# TD90228) and maintained on normal drinking water ad libitum. The animals are maintained on this diet for two to four weeks prior to harvesting the adrenal glomerulosa cells. The rats are killed by CO2 inhalation, and the adrenals are immediately removed and placed in the same ice-cold buffer used during homogenization and assay of the enzyme preparation. The adrenals are decapsulated to obtain the glomerulosa tissue. The tissue is homogenized in a glass homogenizer containing Tris assay buffer (8.5 mM MgCl2, 2.7 mM CaCl2, 3.13 mM KCl, 7.59 mM NaCl, 0.1% TEA and 50 mM Tris HCl adjusted to pH 7.4). The homogenate is diluted so that 37.5 mg of glomerulosa tissue is in each mL of buffer. […] The plates are scanned for radioactivity with a Bioscan System 200 Imaging Scanner (Bioscan, Ish. DC). The two products of the aldosterone synthase, 18-OH-corticosterone and aldosterone are scraped and counted in a liquid scintillation counter (Beckman LS6000TA, Beckman Instr., Palo Alto, Calif.).
The IC50s are determined from a logit-log plot (pseudo-Hill plot) according to the equation (see Pratt and Taylor, Eds, “Principles of Drug Action”, Churchill Livingstone Inc, NY (1990)): log P/(100−P)=n log[I][…] where P is the percent competition of specific binding in the presence of a given concentration of inhibitor (I). The slope (Hill Coefficient) and x intercept (IC50) are determined by linear regression of the experimental data. The Km(app) is calculated by a computer program according to the Hanes equation (see Cornish-Bowden, Ed., “Principles of Enzyme Kinetics”, Butterworth & Co., Boston, Mass. (1976)): s/v=Km/V+s/V where Km=Michaelis constant, V=maximum velocity, s=substrate concentration, v=velocity.

**Q.** With `N#Cc1ccc(C2C(=O)N(CC3CC3)Cc3cncn32)cc1` (stereo not shown) [Example 1, 4-(7-Cyclopropylmethyl-6-oxo-5,6,7,8-tetrahydro-imidazo[1,5-a]pyrazin-5-yl)-benzonitrile] as the compound, how does the IC50 (aldosterone synthase) read?
**A.** Its IC50 is about 12 nM.

**Q.** What about the melting point of the same compound?
**A.** The melting point was 146 to 147 °C.

**Q.** What does the source list for `N#Cc1ccc(C2C(=O)N(Cc3ccccc3)Cc3cncn32)cc1` (stereo not shown) [Example 3, 4-(7-Benzyl-6-oxo-5,6,7,8-tetrahydro-imidazo[1,5-a]pyrazin-5-yl)-benzonitrile]?
**A.** IC50 (aldosterone synthase): ~4 nM; melting point: 163 to 165 °C

**Q.** With `COc1ccc(CN2Cc3cncn3C(c3ccc(C#N)cc3)C2=O)cc1` (stereo not shown) [Example 9, 4-[7-(4-Methoxy-benzyl)-6-oxo-5,6,7,8-tetrahydro-imidazo[1,5-a]pyrazin-5-yl)-benzonitrile] as the compound, how does the melting point read?
**A.** Its melting point is 155 to 157 °C.

**Q.** With `Cc1ccc(CN2Cc3cncn3C(c3ccc(C#N)cc3)C2=O)cc1` (stereo not shown) [Example 10, 4-[7-(4-Methyl-benzyl)-6-oxo-5,6,7,8-tetrahydro-imidazo[1,5-a]pyrazin-5-yl)-benzonitrile] as the compound, how does the melting point read?
**A.** The melting point was 168 to 170 °C.

**Q.** For `N#Cc1ccc(C2C(=O)N(Cc3ccc(F)cc3)Cc3cncn32)cc1` (stereo not shown) [Example 14, 4-[6-Oxo-7-(4-fluoro-benzyl)-5,6,7,8-tetrahydro-imidazo[1,5-a]pyrazin-5-yl]-benzonitrile], which melting point is on record?
**A.** The melting point was 132 to 135 °C.

**Q.** With `N#Cc1ccc(C2C(=O)N(Cc3ccc(Cl)c(Cl)c3)Cc3cncn32)cc1` (stereo not shown) [Example 16] as the compound, how does the melting point read?
**A.** The melting point was 175 to 176 °C.

**Q.** With `CN1Cc2cncn2C(c2ccc(Br)cc2)C1=O` (stereo not shown) [Example 20, 5-(4-Bromo-phenyl)-7-methyl-7,8-dihydro-imidazo[1,5-a]pyrazin-6-one] as the compound, how does the melting point read?
**A.** Its melting point is 143 to 144 °C.

**Q.** For `COc1ccc(CN2Cc3cncn3C(c3ccc(Br)cc3)C2=O)cc1` (stereo not shown) [Example 21, 5-(4-Bromo-phenyl)-7-(4-methoxy-benzyl)-7,8-dihydro-imidazo[1,5-a]pyrazin-6-one], which melting point is on record?
**A.** The melting point was 123 to 124 °C.

**Q.** For `Cl.O=C1C(c2cccc(Br)c2)n2cncc2CN1CC1CC1` (stereo not shown) [Example 32, 5-(3-Bromo-phenyl)-7-cyclopropylmethyl-7,8-dihydro-imidazo[1,5-a]pyrazin-6-one hydrochloride], which IC50 (aldosterone synthase) is on record?
**A.** Its IC50 is about 9 nM.

**Q.** What about the melting point of the same compound?
**A.** The melting point was 249 to 250 °C.

**Q.** Which melting point does the source give for `O=C1C(c2cccc(Br)c2)n2cncc2CN1Cc1ccsc1` (stereo not shown) [Example 50, 5-(3-Bromo-phenyl)-7-thiophen-3-ylmethyl-7,8-dihydro-imidazo[1,5-a]pyrazin-6-one] here?
**A.** The melting point was 43 to 45 °C.

**Q.** For `O=C1C(c2cccc(Br)c2)n2cncc2CN1Cc1cccnc1` (stereo not shown) [Example 52, 5-(3-Bromo-phenyl)-7-pyridin-3-ylmethyl-7,8-dihydro-imidazo[1,5-a]pyrazin-6-one], which melting point is on record?
**A.** Its melting point is 50 to 54 °C.

**Q.** With `O=C1C(c2cccc(Br)c2)n2cncc2CN1Cc1ccccn1` (stereo not shown) [Example 53, 5-(3-Bromo-phenyl)-7-pyridin-2-ylmethyl-7,8-dihydro-imidazo[1,5-a]pyrazin-6-one] as the compound, how does the melting point read?
**A.** The melting point was 52 to 56 °C.

**Q.** Which melting point does the source give for `O=C1C(c2cccc(Br)c2)n2cncc2CN1Cc1ccncc1` (stereo not shown) [Example 54, 5-(3-Bromo-phenyl)-7-pyridin-4-ylmethyl-7,8-dihydro-imidazo[1,5-a]pyrazin-6-one] here?
**A.** The melting point was 50 to 54 °C.

**Q.** With `Cc1ccc(CN2Cc3cncn3CC2=O)cc1` [Example 64, 7-(4-Methyl-benzyl)-7,8-dihydro-imidazo[1,5-a]pyrazin-6-one] as the compound, how does the melting point read?
**A.** Its melting point is 105 to 108 °C.

**Q.** For `O=C1Cn2cncc2CN1Cc1ccc(F)cc1` [Example 65, 7-(4-Fluoro-benzyl)-7,8-dihydro-imidazo[1,5-a]pyrazin-6-one], which melting point is on record?
**A.** The melting point was 112 to 114 °C.

**Q.** With `N#Cc1cccc(C2C(=O)N(Cc3ccccc3)Cc3cncn32)c1` (stereo not shown) [Example 66] as the compound, how does the melting point read?
**A.** The melting point was 163 to 165 °C.

**Q.** With `COc1ccc(CN2Cc3cncn3C(c3ccc(-c4ccsc4)cc3)C2=O)cc1` (stereo not shown) [Example 75, 7-(4-Methoxy-benzyl)-5-(4-thiophen3-yl-phenyl)-7,8-dihydro-imidazo[1,5-a]pyrazin-6-one] as the compound, how does the melting point read?
**A.** Its melting point is 162 to 164 °C.

**Q.** For `O=C1C(c2ccc(-c3ccccc3)cc2)n2cncc2CN1Cc1ccc(F)cc1` (stereo not shown) [Example 78, 5-Biphenyl-4-yl-7-(4-fluoro-benzyl)-7,8-dihydro-imidazo[1,5-a]pyrazin-6-one], which melting point is on record?
**A.** Its melting point is 189 to 190 °C.

**Q.** For `CC1(c2ccc(C#N)cc2)C(=O)N(Cc2ccc(F)cc2)Cc2cncn21` (stereo not shown) [Example 85, 4-[7-(4-Fluoro-benzyl)-5-methyl-6-oxo-5,6,7,8-tetrahydro-imidazo[1,5-a]pyrazin-5-yl]-benzonitrile], which melting point is on record?
**A.** The melting point was 66 to 70 °C.

**Q.** For `C[C@@H](c1ccc(F)cc1)N1Cc2cncn2C(C)(c2ccc(C#N)cc2)C1=O` (stereo partly shown) [Example 86, 4(7-[(s)-1-(4-Fluoro-phenyl)-ethyl]-5-methyl-6-oxo-5,6,7,8-tetrahydro-imidazo[1,5-a]pyrazin-5-yl]-benzonitrile], which melting point is on record?
**A.** The melting point was 78 to 82 °C.

**Q.** With `O=C1N(Cc2ccc(F)cc2)Cc2cncn2C1(Cc1ccccc1)c1ccc(Br)cc1` (stereo not shown) [Example 87, 5-Benzyl-5-(4-bromo-phenyl)-7-(4-fluoro-benzyl)-7,8-dihydro-imidazo[1,5-a]pyrazin-6-one] as the compound, how does the melting point read?
**A.** The melting point was 166 to 168 °C.

**Q.** With `N#Cc1ccc(C2(Cc3ccccc3)C(=O)N(Cc3ccccc3)Cc3cncn32)cc1` (stereo not shown) [Example 88, 4-(5,7-Dibenzyl-6-oxo-5,6,7,8-tetrahydro-imidazol[1,5-a]pyrazin-5-yl)-benzonitrile] as the compound, how does the melting point read?
**A.** The melting point was 246 to 248 °C.

**Q.** With `N#Cc1ccc(C2(Cc3ccccc3)C(=O)N(CC3CC3)Cc3cncn32)cc1` (stereo not shown) [Example 89, 4-(5-Benzyl-7-cyclopropylmethyl-6-oxo-5,6,7,8-tetrahydro-imidazo[1,5-a]pyrazin-5-yl)-benzonitrile] as the compound, how does the melting point read?
**A.** The melting point was 156 to 158 °C.

**Q.** With `N#Cc1ccc(C2CC(=O)N(Cc3ccccc3)Cc3cncn32)cc1` (stereo not shown) [Example 92, 4-(8-Benzyl-7-oxo-6,7,8,9-tetrahydro-5H-imidazo[1,5-a][1,4]diazepin-5-yl)-benzonitrile] as the compound, how does the melting point read?
**A.** Its melting point is 65 °C.

**Q.** Which melting point does the source give for `N#Cc1ccc(C2CC(=O)N(CC3CC3)Cc3cncn32)cc1` (stereo not shown) [Example 93, 4-(8-Cyclopropylmethyl-7-oxo-6,7,8,9-tetrahydro-5H-imidazo[1,5-a][1,4]diazepin-5-yl)-benzonitrile] here?
**A.** Its melting point is 178 to 180 °C.
